Measurements: ChEMBL document CHEMBL5291721, “A preclinical secondary pharmacology resource illuminates target-adverse drug reaction associations of marketed drugs” (Nat Commun, 2023)

Legend:
[1] = molecular target: 3',5'-cyclic-AMP phosphodiesterase 4D (Homo sapiens, UniProt Q08499); format: functional
[2] = molecular target: T1, 5-hydroxytryptamine receptor 3A (Homo sapiens, UniProt P46098); format: functional
T1 sequence (P46098 whole entry): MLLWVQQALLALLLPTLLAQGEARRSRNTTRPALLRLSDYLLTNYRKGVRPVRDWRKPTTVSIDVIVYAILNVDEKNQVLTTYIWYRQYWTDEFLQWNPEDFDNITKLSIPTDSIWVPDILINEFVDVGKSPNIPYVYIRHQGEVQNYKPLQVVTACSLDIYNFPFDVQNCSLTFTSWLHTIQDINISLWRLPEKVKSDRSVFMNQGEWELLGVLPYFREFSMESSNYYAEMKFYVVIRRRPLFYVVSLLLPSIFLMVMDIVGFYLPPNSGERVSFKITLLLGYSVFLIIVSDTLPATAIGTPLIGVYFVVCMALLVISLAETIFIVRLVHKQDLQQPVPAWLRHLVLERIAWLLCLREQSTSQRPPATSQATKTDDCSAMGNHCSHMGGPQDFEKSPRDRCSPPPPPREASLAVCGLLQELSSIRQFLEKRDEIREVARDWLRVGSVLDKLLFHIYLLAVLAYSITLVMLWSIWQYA

[3] = molecular target: Sodium-dependent serotonin transporter (Homo sapiens, UniProt P31645)
Chain of Sodium-dependent serotonin transporter (P31645 whole entry): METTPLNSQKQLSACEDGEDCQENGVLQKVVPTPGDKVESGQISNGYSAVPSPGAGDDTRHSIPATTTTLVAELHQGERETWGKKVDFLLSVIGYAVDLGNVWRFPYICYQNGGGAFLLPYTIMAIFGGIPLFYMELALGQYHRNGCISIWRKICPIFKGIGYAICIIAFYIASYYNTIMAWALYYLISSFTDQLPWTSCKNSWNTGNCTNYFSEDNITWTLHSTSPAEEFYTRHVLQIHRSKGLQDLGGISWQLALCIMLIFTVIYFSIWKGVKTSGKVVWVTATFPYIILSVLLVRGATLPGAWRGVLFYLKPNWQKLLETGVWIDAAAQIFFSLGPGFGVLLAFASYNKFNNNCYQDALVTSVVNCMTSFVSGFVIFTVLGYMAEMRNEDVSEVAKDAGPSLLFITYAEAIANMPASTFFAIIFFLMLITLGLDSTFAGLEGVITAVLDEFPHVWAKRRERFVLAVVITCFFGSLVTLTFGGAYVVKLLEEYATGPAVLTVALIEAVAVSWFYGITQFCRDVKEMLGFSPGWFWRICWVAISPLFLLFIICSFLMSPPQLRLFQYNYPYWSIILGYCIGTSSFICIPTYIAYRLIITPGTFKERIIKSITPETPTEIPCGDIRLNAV

Vasopressin V2 receptor = Vasopressin V2 receptor (Homo sapiens, UniProt P30518)
Chain of Vasopressin V2 receptor (P30518 whole entry): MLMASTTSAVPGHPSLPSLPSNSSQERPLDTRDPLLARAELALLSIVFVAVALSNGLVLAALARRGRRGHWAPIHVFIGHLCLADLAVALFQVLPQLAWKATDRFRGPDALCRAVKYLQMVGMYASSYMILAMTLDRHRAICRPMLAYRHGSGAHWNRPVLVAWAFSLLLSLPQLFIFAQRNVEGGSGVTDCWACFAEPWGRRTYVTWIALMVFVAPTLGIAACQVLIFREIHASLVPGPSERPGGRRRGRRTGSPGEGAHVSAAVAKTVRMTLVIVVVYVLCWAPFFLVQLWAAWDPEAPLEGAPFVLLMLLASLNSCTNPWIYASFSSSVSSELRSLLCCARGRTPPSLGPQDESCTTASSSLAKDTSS

[4] = molecular target: T2, Equilibrative nucleoside transporter 1 (Homo sapiens, UniProt Q99808)
T2 sequence (Q99808 whole entry): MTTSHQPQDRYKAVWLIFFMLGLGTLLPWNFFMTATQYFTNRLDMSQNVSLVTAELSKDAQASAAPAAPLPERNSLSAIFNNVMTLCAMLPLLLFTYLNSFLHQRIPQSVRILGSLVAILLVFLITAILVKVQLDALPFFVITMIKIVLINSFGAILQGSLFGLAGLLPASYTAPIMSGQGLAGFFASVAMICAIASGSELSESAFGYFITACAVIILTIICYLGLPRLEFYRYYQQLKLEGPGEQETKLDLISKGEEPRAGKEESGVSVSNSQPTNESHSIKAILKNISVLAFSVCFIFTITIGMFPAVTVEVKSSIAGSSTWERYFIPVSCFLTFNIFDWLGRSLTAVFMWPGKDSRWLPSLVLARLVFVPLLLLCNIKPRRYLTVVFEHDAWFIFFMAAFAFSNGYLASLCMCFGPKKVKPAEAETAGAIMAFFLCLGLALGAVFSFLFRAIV

[5] = molecular target: 5-hydroxytryptamine receptor 2A (Homo sapiens, UniProt P28223); format: functional, cell-based
Chain of 5-hydroxytryptamine receptor 2A (P28223 whole entry): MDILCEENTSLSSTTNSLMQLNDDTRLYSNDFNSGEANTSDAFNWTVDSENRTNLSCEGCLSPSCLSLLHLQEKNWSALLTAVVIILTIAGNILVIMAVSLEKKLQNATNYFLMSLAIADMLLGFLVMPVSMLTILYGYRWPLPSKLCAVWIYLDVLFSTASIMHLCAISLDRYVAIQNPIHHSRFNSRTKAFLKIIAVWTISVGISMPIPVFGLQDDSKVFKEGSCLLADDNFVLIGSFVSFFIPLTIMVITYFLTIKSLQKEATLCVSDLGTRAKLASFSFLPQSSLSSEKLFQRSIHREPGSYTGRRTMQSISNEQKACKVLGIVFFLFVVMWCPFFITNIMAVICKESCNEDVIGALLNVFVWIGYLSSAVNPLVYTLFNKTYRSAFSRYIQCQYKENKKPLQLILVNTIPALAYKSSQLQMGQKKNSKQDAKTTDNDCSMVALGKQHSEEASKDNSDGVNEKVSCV

[6] = molecular target: Voltage-gated inwardly rectifying potassium channel KCNH2 (Homo sapiens, UniProt Q12809); format: functional; settings: read-out: AC50
Chain of Voltage-gated inwardly rectifying potassium channel KCNH2 (Q12809 whole entry): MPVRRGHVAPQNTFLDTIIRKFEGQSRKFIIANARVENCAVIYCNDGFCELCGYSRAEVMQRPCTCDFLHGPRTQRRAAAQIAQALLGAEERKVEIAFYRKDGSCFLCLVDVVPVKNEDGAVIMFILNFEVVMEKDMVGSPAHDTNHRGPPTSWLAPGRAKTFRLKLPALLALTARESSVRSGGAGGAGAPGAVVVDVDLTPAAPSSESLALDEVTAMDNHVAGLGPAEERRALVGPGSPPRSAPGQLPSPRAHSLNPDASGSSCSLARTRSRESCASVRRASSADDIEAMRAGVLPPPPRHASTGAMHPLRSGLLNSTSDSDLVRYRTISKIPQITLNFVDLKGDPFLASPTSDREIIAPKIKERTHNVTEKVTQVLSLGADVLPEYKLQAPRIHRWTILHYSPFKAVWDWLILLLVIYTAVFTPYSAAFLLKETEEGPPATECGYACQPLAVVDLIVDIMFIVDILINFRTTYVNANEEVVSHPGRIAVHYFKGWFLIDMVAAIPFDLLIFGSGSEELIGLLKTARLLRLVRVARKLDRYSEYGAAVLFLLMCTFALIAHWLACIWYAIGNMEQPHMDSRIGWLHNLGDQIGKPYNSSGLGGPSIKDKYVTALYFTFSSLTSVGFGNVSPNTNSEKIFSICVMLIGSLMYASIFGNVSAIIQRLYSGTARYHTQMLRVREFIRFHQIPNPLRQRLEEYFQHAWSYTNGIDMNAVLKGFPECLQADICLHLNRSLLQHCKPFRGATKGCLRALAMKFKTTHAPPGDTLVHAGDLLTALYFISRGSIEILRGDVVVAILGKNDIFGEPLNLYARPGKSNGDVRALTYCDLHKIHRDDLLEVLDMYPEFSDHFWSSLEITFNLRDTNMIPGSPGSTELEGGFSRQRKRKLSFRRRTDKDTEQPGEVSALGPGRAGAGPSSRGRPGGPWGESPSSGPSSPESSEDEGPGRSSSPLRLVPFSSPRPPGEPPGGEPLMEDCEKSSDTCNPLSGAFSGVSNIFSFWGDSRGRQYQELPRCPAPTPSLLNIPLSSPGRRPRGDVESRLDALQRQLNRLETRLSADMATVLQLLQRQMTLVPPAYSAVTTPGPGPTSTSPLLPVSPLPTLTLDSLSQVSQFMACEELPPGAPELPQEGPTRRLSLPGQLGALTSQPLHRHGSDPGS

[7] = molecular target: Sodium-dependent dopamine transporter (Homo sapiens, UniProt Q01959)
[8] = molecular target: Neuronal acetylcholine receptor subunit alpha-4 (Homo sapiens, UniProt P43681)
Motilin receptor = Motilin receptor (Homo sapiens, UniProt O43193)
Chain of Motilin receptor (O43193 whole entry): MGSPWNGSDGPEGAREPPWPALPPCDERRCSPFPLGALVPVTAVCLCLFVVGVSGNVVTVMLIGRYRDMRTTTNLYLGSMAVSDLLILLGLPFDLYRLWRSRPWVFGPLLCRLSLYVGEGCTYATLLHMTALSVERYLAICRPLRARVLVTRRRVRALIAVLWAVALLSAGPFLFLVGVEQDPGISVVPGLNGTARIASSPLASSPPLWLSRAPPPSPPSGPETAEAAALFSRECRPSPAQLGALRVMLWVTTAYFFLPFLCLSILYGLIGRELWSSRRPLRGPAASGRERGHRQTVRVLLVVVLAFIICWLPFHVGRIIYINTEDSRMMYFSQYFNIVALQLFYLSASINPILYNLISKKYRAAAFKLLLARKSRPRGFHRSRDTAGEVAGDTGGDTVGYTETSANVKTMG

Adenosine receptor A3 = molecular target: T3, Adenosine receptor A3 (Homo sapiens, UniProt P0DMS8)
T3 sequence (P0DMS8 whole entry): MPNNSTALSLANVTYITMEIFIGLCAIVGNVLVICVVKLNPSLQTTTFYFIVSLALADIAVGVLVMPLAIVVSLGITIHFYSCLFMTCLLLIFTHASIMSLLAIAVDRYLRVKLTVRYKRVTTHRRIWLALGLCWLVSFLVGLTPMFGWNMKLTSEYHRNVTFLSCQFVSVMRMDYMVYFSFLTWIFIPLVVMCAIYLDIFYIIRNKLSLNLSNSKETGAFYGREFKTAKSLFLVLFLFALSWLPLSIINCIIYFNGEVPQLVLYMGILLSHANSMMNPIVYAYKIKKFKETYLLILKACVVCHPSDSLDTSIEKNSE

Melanocortin receptor 3 = Melanocortin receptor 3 (Homo sapiens, UniProt P41968)
Chain of Melanocortin receptor 3 (P41968 whole entry): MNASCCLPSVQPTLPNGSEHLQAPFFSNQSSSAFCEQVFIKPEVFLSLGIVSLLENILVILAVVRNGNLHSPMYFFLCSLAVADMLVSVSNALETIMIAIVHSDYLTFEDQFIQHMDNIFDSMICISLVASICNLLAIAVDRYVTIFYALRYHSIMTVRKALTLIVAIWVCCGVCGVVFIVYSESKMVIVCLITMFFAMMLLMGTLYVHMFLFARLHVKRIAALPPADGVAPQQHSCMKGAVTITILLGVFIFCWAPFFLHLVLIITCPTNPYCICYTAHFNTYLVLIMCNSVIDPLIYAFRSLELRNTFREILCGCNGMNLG

D(1A) dopamine receptor = D(1A) dopamine receptor (Homo sapiens, UniProt P21728); format: functional, cell-based
Chain of D(1A) dopamine receptor (P21728 whole entry): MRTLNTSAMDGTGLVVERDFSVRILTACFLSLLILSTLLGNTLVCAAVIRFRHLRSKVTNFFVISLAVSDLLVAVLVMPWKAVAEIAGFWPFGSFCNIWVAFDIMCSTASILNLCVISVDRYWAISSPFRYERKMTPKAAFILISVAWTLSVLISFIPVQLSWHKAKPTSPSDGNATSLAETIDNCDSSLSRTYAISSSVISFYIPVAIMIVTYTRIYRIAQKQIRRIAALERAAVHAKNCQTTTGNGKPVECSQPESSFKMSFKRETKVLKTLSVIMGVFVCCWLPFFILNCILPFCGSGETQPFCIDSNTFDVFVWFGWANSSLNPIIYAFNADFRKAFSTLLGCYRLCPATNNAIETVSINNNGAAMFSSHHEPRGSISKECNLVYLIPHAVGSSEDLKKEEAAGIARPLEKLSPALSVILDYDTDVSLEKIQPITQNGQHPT

Thromboxane A2 receptor [9] = molecular target: T4, Thromboxane A2 receptor (Homo sapiens, UniProt P21731)
T4 sequence (P21731 whole entry): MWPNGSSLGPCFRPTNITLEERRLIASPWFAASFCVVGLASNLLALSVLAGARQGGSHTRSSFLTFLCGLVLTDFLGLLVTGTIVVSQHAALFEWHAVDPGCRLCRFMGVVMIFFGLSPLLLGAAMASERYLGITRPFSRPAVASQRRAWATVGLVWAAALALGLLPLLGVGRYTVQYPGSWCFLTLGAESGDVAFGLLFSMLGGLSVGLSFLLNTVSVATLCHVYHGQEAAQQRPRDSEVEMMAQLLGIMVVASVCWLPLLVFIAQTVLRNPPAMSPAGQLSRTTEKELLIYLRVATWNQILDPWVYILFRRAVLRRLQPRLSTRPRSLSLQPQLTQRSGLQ

Mu-type opioid receptor = Mu-type opioid receptor (Homo sapiens, UniProt P35372)
Chain of Mu-type opioid receptor (P35372 whole entry): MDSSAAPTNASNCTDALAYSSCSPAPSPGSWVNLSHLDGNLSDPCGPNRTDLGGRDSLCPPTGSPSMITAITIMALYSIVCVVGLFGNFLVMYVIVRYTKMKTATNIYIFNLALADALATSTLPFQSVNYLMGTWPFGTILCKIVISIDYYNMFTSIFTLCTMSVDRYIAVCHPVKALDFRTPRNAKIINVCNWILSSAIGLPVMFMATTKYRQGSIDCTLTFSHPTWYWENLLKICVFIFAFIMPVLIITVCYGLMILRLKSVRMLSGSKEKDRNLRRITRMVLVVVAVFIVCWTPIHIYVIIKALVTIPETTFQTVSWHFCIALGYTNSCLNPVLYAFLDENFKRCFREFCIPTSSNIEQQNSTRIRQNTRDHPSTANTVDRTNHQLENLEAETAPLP

Cannabinoid receptor 1 = Cannabinoid receptor 1 (Homo sapiens, UniProt P21554); format: functional, cell-based
Thromboxane A2 receptor [10] = molecular target: T4, Thromboxane A2 receptor; format: functional, cell-based
[11] = molecular target: T5, Amine oxidase [flavin-containing] A (Homo sapiens, UniProt P21397); format: functional
T5 sequence (P21397 whole entry): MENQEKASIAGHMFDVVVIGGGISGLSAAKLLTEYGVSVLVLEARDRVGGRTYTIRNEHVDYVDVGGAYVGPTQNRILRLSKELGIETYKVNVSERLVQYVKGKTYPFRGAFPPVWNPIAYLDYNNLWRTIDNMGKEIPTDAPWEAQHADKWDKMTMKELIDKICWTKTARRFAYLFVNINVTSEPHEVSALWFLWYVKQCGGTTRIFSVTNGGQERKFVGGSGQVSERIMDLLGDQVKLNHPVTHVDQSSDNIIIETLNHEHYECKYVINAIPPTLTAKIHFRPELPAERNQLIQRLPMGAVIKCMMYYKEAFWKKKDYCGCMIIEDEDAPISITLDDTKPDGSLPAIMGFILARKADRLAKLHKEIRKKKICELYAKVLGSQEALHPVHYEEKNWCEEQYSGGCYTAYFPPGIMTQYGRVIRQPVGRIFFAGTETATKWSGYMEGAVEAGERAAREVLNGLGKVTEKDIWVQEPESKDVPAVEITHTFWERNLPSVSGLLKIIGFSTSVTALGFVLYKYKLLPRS
Further: assay procedure not described here.

Chain of 3',5'-cyclic-AMP phosphodiesterase 4D (Q08499 whole entry): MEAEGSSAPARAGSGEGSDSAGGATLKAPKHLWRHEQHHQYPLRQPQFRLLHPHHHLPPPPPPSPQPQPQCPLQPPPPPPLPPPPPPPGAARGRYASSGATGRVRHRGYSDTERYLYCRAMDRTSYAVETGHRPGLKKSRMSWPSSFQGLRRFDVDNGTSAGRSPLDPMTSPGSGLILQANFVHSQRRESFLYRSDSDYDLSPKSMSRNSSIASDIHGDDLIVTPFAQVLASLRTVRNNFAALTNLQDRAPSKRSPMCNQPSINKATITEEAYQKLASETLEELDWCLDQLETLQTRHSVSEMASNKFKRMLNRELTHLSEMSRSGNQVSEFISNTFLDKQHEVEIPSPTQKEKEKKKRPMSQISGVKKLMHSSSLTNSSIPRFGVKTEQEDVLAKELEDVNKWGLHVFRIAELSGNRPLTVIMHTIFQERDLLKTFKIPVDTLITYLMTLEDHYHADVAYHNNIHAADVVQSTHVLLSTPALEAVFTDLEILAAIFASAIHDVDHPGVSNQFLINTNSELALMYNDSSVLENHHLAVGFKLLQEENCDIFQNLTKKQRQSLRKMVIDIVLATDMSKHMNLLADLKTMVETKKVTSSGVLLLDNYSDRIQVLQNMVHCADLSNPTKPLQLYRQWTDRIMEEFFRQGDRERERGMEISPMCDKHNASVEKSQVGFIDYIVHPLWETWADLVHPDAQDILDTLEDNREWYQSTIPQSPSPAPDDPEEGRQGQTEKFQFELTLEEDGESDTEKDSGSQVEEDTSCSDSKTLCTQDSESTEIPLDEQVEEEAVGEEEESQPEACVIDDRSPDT

| AC50 [1] [µM] | AC50 [2] [µM] | AC50 [3] [µM] | AC50 (Vasopressin V2 receptor) [µM] | AC50 [5] [µM] | AC50 [7] [µM] | AC50 [8] [µM] | AC50 (Motilin receptor) [µM] | AC50 (Adenosine receptor A3) [µM] | AC50 (Melanocortin receptor 3) [µM] | AC50 (D(1A) dopamine receptor) [µM] | AC50 (Thromboxane A2 receptor [9]) [µM] | AC50 (Cannabinoid receptor 1) [µM] | SMILES | AC50 [4] [µM] | AC50 [6] [µM] | AC50 (Mu-type opioid receptor) [µM] | AC50 (Thromboxane A2 receptor [10]) [µM] | AC50 [11] [µM] |
| --- | --- | --- | --- | --- | --- | --- | --- | --- | --- | --- | --- | --- | --- | --- | --- | --- | --- | --- |
| > 30 | > 30 | > 30 | > 30 | > 30 | > 30 | > 30 | > 30 | > 30 | > 30 | > 30 | > 30 |  | COc1ccccc1OCC(O)CN1CCN(CC(=O)Nc2c(C)cccc2C)CC1 (stereo not drawn) [RANOLAZINE] | > 30 |  |  |  |  |
| > 30 | > 30 |  | > 10 |  | > 10 | > 10 | > 10 | > 10 | > 10 | > 10 | > 10 |  | CN(C)/N=N/c1[nH]cnc1C(N)=O [DACARBAZINE] | > 10 | > 30 | > 30 |  |  |
| > 30 | > 30 | > 30 | > 30 | > 30 | > 30 | > 30 | > 30 | > 30 | > 30 | > 30 | > 30 | > 30 | Cc1nc([N+](=O)[O-])cn1-c1ccc([N+](=O)[O-])cc1 [NITREFAZOLE] |  | > 30 |  |  |  |
| > 30 | > 30 | > 30 | > 30 | > 30 | > 30 | > 30 | > 30 | > 30 | > 30 | > 30 | > 30 | > 30 | CC(=O)NCCCS(=O)(=O)O [ACAMPROSATE] |  | > 30 |  |  |  |
| > 30 | > 30 | > 30 | > 30 | > 30 | > 30 | > 30 | > 30 | > 30 | > 30 | > 30 | > 30 |  | CCCCN1C[C@H](O)[C@@H](O)[C@H](O)[C@H]1CO | > 30 | > 30 |  |  |  |
| > 30 | > 30 | > 30 | > 30 | > 30 | > 30 | > 30 | > 30 | > 30 | > 30 | > 30 | > 30 | > 30 | COc1cc2nc(N(C)CCCNC(=O)C3CCCO3)nc(N)c2cc1OC (stereo not drawn) [ALFUZOSIN] | > 30 |  |  |  |  |
| 10 | > 30 | > 30 | > 30 | > 30 | > 30 | > 30 | > 30 | > 30 | > 30 | > 30 | > 30 | > 30 | Nc1nc(NC2CC2)c2ncn([C@H]3C=C[C@@H](CO)C3)c2n1 [ABACAVIR] | > 30 | > 30 |  |  |  |

| SMILES | AC50 [1] [µM] | AC50 [2] [µM] | AC50 [3] [µM] | AC50 (Vasopressin V2 receptor) [µM] | AC50 [5] [µM] | AC50 [7] [µM] | AC50 [8] [µM] | AC50 (Motilin receptor) [µM] | AC50 (Adenosine receptor A3) [µM] | AC50 (Melanocortin receptor 3) [µM] | AC50 (D(1A) dopamine receptor) [µM] | AC50 (Thromboxane A2 receptor [9]) [µM] | AC50 (Cannabinoid receptor 1) [µM] | AC50 [4] [µM] | AC50 [6] [µM] | AC50 (Mu-type opioid receptor) [µM] | AC50 (Thromboxane A2 receptor [10]) [µM] | AC50 [11] [µM] |
| --- | --- | --- | --- | --- | --- | --- | --- | --- | --- | --- | --- | --- | --- | --- | --- | --- | --- | --- |
| Cc1c(C(=O)NN2CCCCC2)nn(-c2ccc(Cl)cc2Cl)c1-c1ccc(Cl)cc1 [RIMONABANT] | > 30 | > 30 | > 30 | > 30 | 3.7 | 23 | > 10 | 21 | 3.76 | 15.9 | > 30 | 18.6 |  | 20.1 | > 30 |  |  |  |
| O=C(O[C@H]1C[C@H]2CC[C@@H](C1)[N+]21CCCC1)C(O)(c1ccccc1)c1ccccc1 [TROSPIUM] | > 30 | > 30 | > 30 | > 30 | > 30 | > 30 | > 30 | > 30 | > 30 | > 30 | > 30 | > 30 |  | > 30 | 0.63 |  |  |  |
| CC[C@H]1[C@@H](O)[C@@H]2[C@H](CC[C@]3(C)[C@@H]([C@H](C)CCC(=O)O)CC[C@@H]23)[C@@]2(C)CC[C@@H](O)C[C@@H]12 [OBETICHOLIC ACID] | > 30 | > 30 | > 30 | > 30 | 11.5 | > 30 | > 30 | > 30 | 23 | > 30 | > 30 | > 30 | > 30 | > 30 | > 30 |  | > 30 | > 30 |
| CCCSc1ccc2nc(NC(=O)OC)[nH]c2c1 [ALBENDAZOLE] | > 30 | > 30 |  | > 10 |  | > 30 | > 10 | > 10 | > 30 | > 30 | > 10 | > 30 |  | > 30 | 10.4 | > 30 |  |  |
| C=CCc1ccccc1OCC(O)CNC(C)C (stereo not drawn) [ALPRENOLOL] | > 30 | > 30 | 11.5 | > 30 | > 30 | > 30 | > 30 | > 30 | > 30 | > 30 | > 30 | > 30 | > 30 | > 30 | 9.1 |  | > 0.3 | > 0.3 |
| CC1(C)NC(=O)N(c2ccc([N+](=O)[O-])c(C(F)(F)F)c2)C1=O [NILUTAMIDE] | 28 | > 30 | > 30 | > 30 | > 30 | > 30 | > 30 | > 30 | > 30 | > 30 | > 30 | > 30 |  | > 30 | > 30 |  | > 30 | > 30 |
